Consider 49 compounds from patent US11649251B2, “Substituted inhibitors of menin-MLL and methods of use” (Kura Oncology, Inc., priority 2017, dated 2023).

The target in the test is T1, Menin MLL 4-43 (Homo sapiens, UniProt O00255).
T1 sequence (O00255 1-610): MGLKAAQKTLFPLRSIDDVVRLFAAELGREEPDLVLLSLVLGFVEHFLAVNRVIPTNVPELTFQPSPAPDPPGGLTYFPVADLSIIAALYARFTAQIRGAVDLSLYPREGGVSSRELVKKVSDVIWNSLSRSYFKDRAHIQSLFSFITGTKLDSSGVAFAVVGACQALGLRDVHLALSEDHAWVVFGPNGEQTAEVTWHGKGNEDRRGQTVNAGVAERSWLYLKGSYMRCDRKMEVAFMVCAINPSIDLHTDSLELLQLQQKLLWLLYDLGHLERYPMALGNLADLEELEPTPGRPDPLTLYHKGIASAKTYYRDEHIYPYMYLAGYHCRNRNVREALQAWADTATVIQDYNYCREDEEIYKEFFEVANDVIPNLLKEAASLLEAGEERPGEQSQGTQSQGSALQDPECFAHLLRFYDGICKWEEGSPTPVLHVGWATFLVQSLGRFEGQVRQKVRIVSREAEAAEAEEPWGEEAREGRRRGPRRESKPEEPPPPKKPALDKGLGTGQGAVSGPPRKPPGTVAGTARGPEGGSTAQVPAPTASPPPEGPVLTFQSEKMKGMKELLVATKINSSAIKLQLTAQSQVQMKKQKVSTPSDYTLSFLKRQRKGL
The test is described as follows: Fluorescence polarization (FP) competition assay of the menin-MLL interaction. It is filed as binding. Particulars: fluorescence polarization competition with fluorescein-labeled MLL peptide. The source says: This example illustrates an assay effective in monitoring the binding of MLL to menin. […] A fluorescein-labeled peptide containing the high affinity menin binding motif found in MLL was produced according to Yokoyama et al. (Cell, 2005, 123(2): 207-218), herein incorporated by reference in its entirety. Binding of the labeled peptide (1.7 kDa) to the much larger menin (˜67 kDa) is accompanied by a significant change in the rotational correlation time of the fluorophore, resulting in a substantial increase in the fluorescence polarization and fluorescence anisotropy (excitation at 500 nm, emission at 525 nm).
(Fluorescence polarisation rises when a labelled molecule tumbles more slowly, as on binding a larger partner.)
The term IC50 denotes the concentration needed to halve the response being measured. A higher IC50 goes with lower potency. As for `Cc1nc(N2CCC3(CCN(Cc4ccc(NS(C)(=O)=O)cc4)C3)C2)c2cc(CC(F)(F)F)sc2n1` (stereo not shown) [Compound 25], the concentration for half-maximal inhibition (IC50) lay in the range of 250 to 1000 nM.

The compound `CNc1nc(N2CCC3CN(Cc4ccccc4)CC3C2)c2cc(CC(F)(F)F)sc2n1` (stereo not shown) [Compound 152] came in with a half-inhibitory concentration (IC50) of 250 to 1000 nM.

The compound `CNc1nc(N2CCC3CCN(Cc4ccc5[nH]c(=O)[nH]c5c4)C3C2)c2cc(CC(F)(F)F)sc2n1` (stereo not shown) [Compound 144] yielded an IC50 above 1000 nM.

With `CNc1nc(N2CC3CN(CCc4ccccc4)CC3C2)c2cc(CC(F)(F)F)sc2n1` (stereo not shown) [Compound 128], the 50% inhibitory concentration (IC50) was above 1000 nM.

Take `CNc1nc(N2CC3CCN(Cc4ccccc4)CC3C2)c2cc(CC(F)(F)F)sc2n1` (stereo not shown) [Compound 156]: the concentration for half-maximal inhibition (IC50) is above 1000 nM.

`CNS(=O)(=O)C1CCN([C@@H](C)Cn2c(C#N)cc3c(C)c(CN4CCC5(CCN(c6ncnc7sc(CC(F)(F)F)cc67)C5)C4)ccc32)CC1` (stereo partly shown) [Compound 70]: the concentration for half-maximal inhibition (IC50) was below 50 nM.

Consider `CNS(=O)(=O)C1CCN([C@@H](C)Cn2c(C#N)cc3c(C)c(CN4CCC5(CCN(c6nc(C)nc7sc(CC(F)(F)F)cc67)C5)C4)ccc32)CC1` (stereo partly shown) [Compound 69], for which the IC50 was below 50 nM.

`Cc1nc(N2CC3CN(Cc4ccc5[nH]c(C#N)cc5c4C)CC3C2)c2cc(CC(F)(F)F)sc2n1` (stereo not shown) [Compound 149] came in with a concentration for half-maximal inhibition (IC50) above 1000 nM.

`CCS(=O)(=O)Nc1ccc(CN2CCC3(CCN(c4nc(NC)nc5sc(CC(F)(F)F)cc45)C3)C2)cc1` (stereo not shown) [Compound 126] displayed an IC50 of 50 to 250 nM.

With `CNc1nc(N2CC3CN(Cc4ccc(NC(C)=O)cc4)CC3C2)c2cc(CC(F)(F)F)sc2n1` (stereo not shown) [Compound 148], the IC50 is above 1000 nM.

`CNc1nc(N2CCC3(CCN(Cc4ccc(NS(C)(=O)=O)cc4)C3)C2)c2cc(CC(F)(F)F)sc2n1` (stereo not shown) [Compound 26]: the concentration for half-maximal inhibition (IC50) fell in the range of 50 to 250 nM.

`Cc1nc(N2CCC3(CCN(Cc4ccc5c(c4)[nH]c(=O)n5CCO)C3)C2)c2cc(CC(F)(F)F)sc2n1` (stereo not shown) [Compound 29] registered an IC50 of 250 to 1000 nM.

In turn, `CNc1nc(N2CCC3(CCN(Cc4ccc5c(c4)[nH]c(=O)n5CCO)C3)C2)c2cc(CC(F)(F)F)sc2n1` (stereo not shown) [Compound 30] returned an IC50 below 50 nM.

For `Cc1c(CN2CCC3(CCN(c4nc(N)nc5sc(CC(F)(F)F)cc45)C3)C2)ccc2[nH]c(C#N)cc12` (stereo not shown) [Compound 125], the IC50 is above 1000 nM.

Regarding `CNc1nc(N2CCC3(CCN(Cc4ccc(NS(=O)(=O)NC)cc4)C3)C2)c2cc(CC(F)(F)F)sc2n1` (stereo not shown) [Compound 96], the IC50 is above 1000 nM.

`CNc1nc(N2CCC3CN(CCc4ccccc4)CC3C2)c2cc(CC(F)(F)F)sc2n1` (stereo not shown) [Compound 154] gave an IC50 above 1000 nM.

`CNc1nc(N2CC3CCN(Cc4ccc5[nH]c(C#N)cc5c4C)CC3C2)c2cc(CC(F)(F)F)sc2n1` (stereo not shown) [Compound 157] returned an IC50 above 1000 nM.

`CNS(=O)(=O)N1CCN([C@@H](C)Cn2c(C#N)cc3c(C)c(CN4CCC5(CCN(c6ncnc7sc(CC(F)(F)F)cc67)C5)C4)ccc32)CC1` (stereo partly shown) [Compound 45] registered an IC50 below 50 nM.

Regarding `CNc1nc(N2CC3CCN(Cc4ccc5[nH]c(=O)[nH]c5c4)C3C2)c2cc(CC(F)(F)F)sc2n1` (stereo not shown) [Compound 140], the half-maximal inhibitory concentration (IC50) was above 1000 nM.

Take `CNS(=O)(=O)N1CCN([C@@H](C)Cn2c(C#N)cc3c(C)c(CN4CCC5(CCN(c6nc(C)nc7sc(CC(F)(F)F)cc67)C5)C4)ccc32)CC1` (stereo partly drawn) [Compound 1, 4-((2S)-1-(2-cyano-4-methyl-5-((7-(2-methyl-6-(2,2,2-trifluoroethyl)thieno[2,3-d]pyrimidin-4-yl)-2,7-diazaspiro[4.4]nonan-2-yl)methyl)-1H-indol-1-yl)propan-2-yl)-N-methylpiperazine-1-sulfonamide]: the IC50 is 50 to 250 nM.

Regarding `Cc1c(CN2CCC3(CCN(c4ncnc5sc(CC(F)(F)F)cc45)C3)C2)ccc2c1cc(C#N)n2C[C@@H]1CNC(=O)OC1` (stereo partly shown) [Compound 44], the IC50 was below 50 nM.

With `CNc1nc(N2CC3CN(Cc4ccc5[nH]c(C#N)cc5c4C)CC3C2)c2cc(CC(F)(F)F)sc2n1` (stereo not shown) [Compound 127], the concentration for half-maximal inhibition (IC50) was 50 to 250 nM.

`Cc1c(CN2CCC3(CCN(c4ncnc5sc(CC(F)(F)F)cc45)C3)C2)ccc2c1cc(C#N)n2C[C@H](C)N1CCN(S(C)(=O)=O)CC1` (stereo partly shown) [Compound 43] gave a half-maximal inhibitory concentration (IC50) below 50 nM.

The compound `CNc1nc(N2CC3CCN(CCc4ccc5[nH]ccc5c4)CC3C2)c2cc(CC(F)(F)F)sc2n1` (stereo not shown) [Compound 159] returned an IC50 above 1000 nM.

Turning to `CNc1nc(N2CC3CN(CCc4ccc5[nH]ccc5c4)CC3C2)c2cc(CC(F)(F)F)sc2n1` (stereo not shown) [Compound 139], the IC50 was in the range of 250 to 1000 nM.

Consider `CNc1nc(N2CCC3(CCN(Cc4ccc5c(cc(C#N)n5C[C@H](C)N5CCC(S(=O)(=O)NC)CC5)c4C)C3)C2)c2cc(CC(F)(F)F)sc2n1` (stereo partly shown) [Compound 68], for which the 50% inhibitory concentration (IC50) was below 50 nM.

Compound `CNc1nc(N2CCC3(CCN(Cc4ccc5c(cc(C#N)n5C[C@H](C)N5CCC(S(C)(=O)=O)CC5)c4C)C3)C2)c2cc(CC(F)(F)F)sc2n1` (stereo partly shown) [Compound 75] showed an IC50 below 50 nM.

In turn, `CNc1nc(N2CCC3(CCN(Cc4ccc5c(cc(C#N)n5CCN5CCN(S(=O)(=O)NC)CC5)c4C)C3)C2)c2cc(CC(F)(F)F)sc2n1` (stereo not shown) [Compound 46] gave a half-maximal inhibitory concentration (IC50) of 50 to 250 nM.

Regarding `CCC(=O)NC12CC(Cn3c(C#N)cc4c(C)c(CN5CCC6(CCN(c7nc(NC)nc8sc(CC(F)(F)F)cc78)C6)C5)ccc43)(C1)C2` (stereo not shown) [Compound 11], the half-maximal inhibitory concentration (IC50) was 50 to 250 nM.

For the compound `Cc1nc(N2CCC3(CCN(Cc4ccc5[nH]c(C#N)cc5c4C)C3)C2)c2cc(CC(F)(F)F)sc2n1` (stereo not shown) [Compound 41], the IC50 is above 1000 nM.

With `CNc1nc(N2CCC3(CCN(Cc4ccc5c(cc(C#N)n5C[C@@H]5CNC(=O)CO5)c4C)C3)C2)c2cc(CC(F)(F)F)sc2n1` (stereo partly shown) [Compound 22], the half-maximal inhibitory concentration (IC50) was below 50 nM.

Regarding `CCC(=O)NC12CC(Cn3c(C#N)cc4c(C)c(CN5CCC6(CCN(c7nc(C)nc8sc(CC(F)(F)F)cc78)C6)C5)ccc43)(C1)C2` (stereo not shown) [Compound 3, N-(3-((2-cyano-4-methyl-5-((7-(2-methyl-6-(2,2,2-trifluoroethyl)thieno[2,3-d]pyrimidin-4-yl)-2,7-diazaspiro[4.4]nonan-2-yl)methyl)-1H-indol-1-yl)methyl)bicyclo[1.1.1]pentan-1-yl)propionamide], the IC50 was in the range of 250 to 1000 nM.

Turning to `CNc1nc(N2CC3CCN(Cc4ccc5[nH]c(C#N)cc5c4C)C3C2)c2cc(CC(F)(F)F)sc2n1` (stereo not shown) [Compound 129], the IC50 was above 1000 nM.

Take `Cc1c(CN2CC3CN(c4ncnc5sc(CC(F)(F)F)cc45)CC3C2)ccc2[nH]c(C#N)cc12` (stereo not shown) [Compound 150]: the IC50 is above 1000 nM.

For `Cc1nc(N2CCC3(CCN(Cc4ccc5c(cc(C#N)n5C[C@@H]5CNC(=O)CO5)c4C)C3)C2)c2cc(CC(F)(F)F)sc2n1` (stereo partly shown) [Compound 21], the 50% inhibitory concentration (IC50) was below 50 nM.

For `Cc1nc(N2CCC3(CCN(Cc4ccc5c(cc(C#N)n5C[C@H](C)N5CCN(S(C)(=O)=O)CC5)c4C)C3)C2)c2cc(CC(F)(F)F)sc2n1` (stereo partly shown) [Compound 8], the IC50 was in the range of 50 to 250 nM.

Compound `CNc1nc(N2CCC3CCN(Cc4ccc5[nH]c(C#N)cc5c4C)C3C2)c2cc(CC(F)(F)F)sc2n1` (stereo not shown) [Compound 143] returned a half-maximal inhibitory concentration (IC50) above 1000 nM.

Take `CNc1nc(N2CC3CCN(CCc4ccccc4)CC3C2)c2cc(CC(F)(F)F)sc2n1` (stereo not shown) [Compound 158]: the half-inhibitory concentration (IC50) is above 1000 nM.

As to `CNc1nc(N2CCC3(CCN(Cc4ccc5c(cc(C#N)n5C[C@H](C)N5CCN(S(C)(=O)=O)CC5)c4C)C3)C2)c2cc(CC(F)(F)F)sc2n1` (stereo partly shown) [Compound 9], the IC50 is 50 to 250 nM.

Take `Cc1nc(N2CCC3(CCN(Cc4ccc5c(cc(C#N)n5C[C@H](C)N5CCN(S(C)(=O)=O)CC5)c4C)C3)C2)c2cc(CC(F)(F)F)sc2n1` (stereo partly shown) [Compound 17]: the half-maximal inhibitory concentration (IC50) is below 50 nM.

For `CNc1nc(N2CCC3(CCN(Cc4ccc5[nH]c(C#N)cc5c4C)C3)C2)c2cc(CC(F)(F)F)sc2n1` (stereo not shown) [Compound 42], the half-maximal inhibitory concentration (IC50) was in the range of 250 to 1000 nM.

In the case of `CNc1nc(N2CCC3CCN(Cc4ccccc4)C3C2)c2cc(CC(F)(F)F)sc2n1` (stereo not shown) [Compound 145], the IC50 was above 1000 nM.

Turning to `CNc1nc(N2CC3CN(Cc4ccc(NS(C)(=O)=O)cc4)CC3C2)c2cc(CC(F)(F)F)sc2n1` (stereo not shown) [Compound 147], the IC50 is above 1000 nM.

Consider `CNc1nc(N2CCC3CN(CCc4ccc5[nH]ccc5c4)CC3C2)c2cc(CC(F)(F)F)sc2n1` (stereo not shown) [Compound 155], for which the concentration for half-maximal inhibition (IC50) lay in the range of 250 to 1000 nM.

`CNc1nc(N2CCC3(CCN(Cc4ccc5c(cc(C#N)n5CCN5CCC(S(C)(=O)=O)CC5)c4C)C3)C2)c2cc(CC(F)(F)F)sc2n1` (stereo not shown) [Compound 77] registered a half-inhibitory concentration (IC50) below 50 nM.

On to `CNc1nc(N2CC3CN(Cc4ccc(C#N)cc4)CC3C2)c2cc(CC(F)(F)F)sc2n1` (stereo not shown) [Compound 146], for which the IC50 is above 1000 nM.

`CNc1nc(N2CC3CCN(Cc4ccccc4)C3C2)c2cc(CC(F)(F)F)sc2n1` (stereo not shown) [Compound 141]: the 50% inhibitory concentration (IC50) was above 1000 nM.

Take `CNc1nc(N2CCC3(CCN(C[C@H]4CC[C@H](NS(C)(=O)=O)CC4)C3)C2)c2cc(CC(F)(F)F)sc2n1` (stereo partly shown) [Compound 14]: the IC50 is below 50 nM.

In turn, `CNc1nc(N2CC3CN(Cc4ccc5c(cc(C#N)n5CCN5CCN(S(C)(=O)=O)CC5)c4C)CC3C2)c2cc(CC(F)(F)F)sc2n1` (stereo not shown) [Compound 151] returned a concentration for half-maximal inhibition (IC50) above 1000 nM.
